Assay results reported in ChEMBL document CHEMBL1201862, “PubChem BioAssay data set” (2004).
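All cell lines were grown in 96-well plates and treated with compound for 48 hours. GI50 is the concentration that inhibits growth by half.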 Activity calls are given as the source filed them. Cut-off read from the data, not from the text of the source: active = GI50 up to about 1.1 µM and inactive = higher.

Key:
Test in all cases: NCI anticancer screen, dose series, 48 h
SNB-78 = tested on: SNB-78
XF498 = tested on: XF498
RXF 631 = tested on: RXF 631
LXFL 529 = tested on: LXFL 529
KM-20L2 = tested on: KM-20L2
DLD-1 = tested on: DLD-1
DMS-114 = tested on: DMS-114
DMS-273 = tested on: DMS-273
HOP-18 = tested on: HOP-18

| Compound | GI50 (SNB-78) | GI50 (XF498) | GI50 (RXF 631) | GI50 (LXFL 529) | GI50 (KM-20L2) | GI50 (DLD-1) | GI50 (DMS-114) | GI50 (DMS-273) | GI50 (HOP-18) |
| --- | --- | --- | --- | --- | --- | --- | --- | --- | --- |
| CC1(c2cccc3ccccc23)OC(=O)c2ccccc21 (stereo unspecified) | 41.7 µM (inactive) | 18.2 µM (inactive) | 20.2 µM (inactive) | 26.5 µM (inactive) | 17.2 µM (inactive) | 22.5 µM (inactive) | 13.4 µM (inactive) | 10.8 µM (inactive) |  |
| C/C(=N\NC(N)=O)c1sc(-c2nc(C)c(/C(C)=N/NC(N)=O)s2)nc1C | > 100 µM (inactive) | > 100 µM (inactive) |  | > 100 µM (inactive) | 49.3 µM (inactive) | 46.6 µM (inactive) |  | 21.1 µM (inactive) | > 100 µM (inactive) |
| O=C(O)CCC1(Br)CCCCC(Br)C1=O (stereo unspecified) | > 100 µM (inactive) | > 100 µM (inactive) |  | > 100 µM (inactive) | > 100 µM (inactive) |  | > 100 µM (inactive) | > 100 µM (inactive) | 32.8 µM (inactive) |
| COc1ccccc1/C=C(\C#N)C(=O)c1ccccc1 | > 100 µM (inactive) | > 100 µM (inactive) |  |  | > 100 µM (inactive) |  | > 100 µM (inactive) | > 100 µM (inactive) |  |
| CCCC/C=C/C1Cc2ccccc2CN1S(=O)(=O)c1ccc(C)cc1 (stereo unspecified) |  | 17 µM (inactive) | 5.78 µM (inactive) | 5.42 µM (inactive) | 11.6 µM (inactive) | 7.71 µM (inactive) | 3.03 µM (inactive) | 7.71 µM (inactive) | 83 µM (inactive) |
| Cc1ccc(/C=N/C23CC4CC(CC(C4)C2)C3)cc1 | > 100 µM (inactive) | 83 µM (inactive) |  |  | > 100 µM (inactive) |  | 27.5 µM (inactive) | > 100 µM (inactive) |  |
| CC(C)(C)OC(=O)NCC(=O)OCc1ccccc1 | > 100 µM (inactive) | > 100 µM (inactive) |  | > 100 µM (inactive) |  | > 100 µM (inactive) | > 100 µM (inactive) | > 100 µM (inactive) |  |
| c1nc2cscc2c2cscc12 | > 100 µM (inactive) | > 100 µM (inactive) |  | > 100 µM (inactive) |  |  | > 100 µM (inactive) | > 100 µM (inactive) |  |
| CCOC(=O)c1oc2c(OC)cc(Cl)c3c2c1CCC3 | > 100 µM (inactive) | 19.5 µM (inactive) |  | > 100 µM (inactive) |  | > 100 µM (inactive) | > 100 µM (inactive) | 92 µM (inactive) |  |
| COc1cccc(NC(=O)CSc2nnc(-c3ccc(/N=C\c4ccc(Cl)cc4)cc3)o2)c1 | 40.3 µM (inactive) | 19.2 µM (inactive) |  | 19.8 µM (inactive) | 16.9 µM (inactive) |  | 20.5 µM (inactive) | > 10 µM (inactive) | 40 µM (inactive) |
| COc1cc(Cc2nccc3cc(OC)c(OC)cc23)c(C(C)=O)cc1OC | 74.6 µM (inactive) | 12.2 µM (inactive) | > 750 µM (inactive) | 25.5 µM (inactive) | 56.9 µM (inactive) | 136 µM (inactive) | 5.94 µM (inactive) | 14.9 µM (inactive) | > 300 µM (inactive) |
| COc1ccc2c(c1OCC(=O)O)C(=O)C(CCC(=O)O)CC2 (stereo unspecified) | > 100 µM (inactive) | 71.1 µM (inactive) | > 100 µM (inactive) | > 100 µM (inactive) | > 100 µM (inactive) | > 100 µM (inactive) | > 100 µM (inactive) | > 100 µM (inactive) | > 100 µM (inactive) |
| C/C(CC(=O)Nc1ccc(Cl)cc1)=N\NC(N)=S | > 100 µM (inactive) | > 100 µM (inactive) | > 100 µM (inactive) | 5.47 µM (inactive) | 13.9 µM (inactive) | 18.3 µM (inactive) | 39.1 µM (inactive) | 8.09 µM (inactive) |  |
| CC(=O)Oc1ccc2c(=O)c(C(C)=O)coc2c1 | 80 µM (inactive) | 83.9 µM (inactive) |  | > 100 µM (inactive) | > 100 µM (inactive) |  |  | > 100 µM (inactive) |  |
| CCC(O)C1Cc2c(C)cc3c(c2O1)C(=O)c1ccccc1C3=O (stereo unspecified) | 33.2 µM (inactive) | 14.3 µM (inactive) |  | 28.8 µM (inactive) | 35.2 µM (inactive) | 42 µM (inactive) | 25.4 µM (inactive) | 28.7 µM (inactive) | 17.2 µM (inactive) |
| CCCCCCCCC(=O)NCCN(CCN)C(=O)CCCCCCCC | 10.4 µM (inactive) | 2.42 µM (inactive) | 4.08 µM (inactive) | 3.36 µM (inactive) | 5.04 µM (inactive) | 5.37 µM (inactive) | 4.79 µM (inactive) | 2.87 µM (inactive) | 16.7 µM (inactive) |
| Nc1ccc(C(=O)CC2(O)C(=O)Nc3c(Cl)cc(Cl)cc32)cc1 (stereo unspecified) |  |  | 28.8 µM (inactive) | 37.8 µM (inactive) | > 100 µM (inactive) | 42.9 µM (inactive) |  |  | 90.6 µM (inactive) |
| O=c1[nH]n2c(=O)cc[nH]c2c1-c1nnns1 | > 100 µM (inactive) | > 100 µM (inactive) |  | > 100 µM (inactive) | > 100 µM (inactive) | > 100 µM (inactive) | > 100 µM (inactive) | > 100 µM (inactive) |  |
| COC(=O)NC(=O)c1cn(C2CCCCC2)c(=O)[nH]c1=O | > 100 µM (inactive) |  |  | > 100 µM (inactive) | > 100 µM (inactive) | > 100 µM (inactive) | > 100 µM (inactive) | > 100 µM (inactive) | > 100 µM (inactive) |
| O=C(OCCOCBr)c1ccccc1 | > 100 µM (inactive) |  | > 100 µM (inactive) | > 100 µM (inactive) | > 100 µM (inactive) | > 100 µM (inactive) | > 100 µM (inactive) | > 100 µM (inactive) | > 100 µM (inactive) |
| O=c1c2c(nc3n1CCC3)sc1c(O)c(Br)ccc12 | 33.3 µM (inactive) | 21.5 µM (inactive) |  |  | 13.5 µM (inactive) | 27.7 µM (inactive) | 16.3 µM (inactive) | 14.9 µM (inactive) | > 100 µM (inactive) |
| CC(=O)O[C@]1(C)CCC2C(C)C(=O)OC2C2C(C)[C@@H](O)CC21 (stereo partly specified) | 74 µM (inactive) |  |  | 21.7 µM (inactive) | 29.3 µM (inactive) | 41.4 µM (inactive) |  | 22.4 µM (inactive) | 40.6 µM (inactive) |
| Cc1nn(C)c(=S)n(C)c1=O | 3.18 µM (inactive) | 1.15 µM (inactive) |  | 0.515 µM (active) | 24.9 µM (inactive) | 3.16 µM (inactive) | 0.269 µM (active) | 0.427 µM (active) | 0.43 µM (active) |
| Clc1ccc2c(NCCCCCCNc3ccnc4cc(Cl)ccc34)ccnc2c1 | 1.86 µM (inactive) | 1.57 µM (inactive) | 2.44 µM (inactive) | 2.33 µM (inactive) | 1.99 µM (inactive) | 3.03 µM (inactive) | 1.8 µM (inactive) | 2.98 µM (inactive) |  |
| COc1cc(/C=C2\CCC/C(=C\c3ccc(O)c(OC)c3)C2=O)ccc1O [CYCLOVALONE] | 2.75 µM (inactive) | 5.7 µM (inactive) |  | 1.85 µM (inactive) | 15.2 µM (inactive) | 1.75 µM (inactive) | 1.77 µM (inactive) | 1.51 µM (inactive) | 2.74 µM (inactive) |
